Data taken from patent publication US7608683B2, “Stress proteins and peptides and methods of use thereof” (The Regents of the University of California, priority 2000, dated 2009).
Where a SMILES comes first, the peptide text is derived from it. The star is where a group is joined. Biotin = O=C1N[C@H]2[C@H](CS[C@H]2CCCCC(=O)*)N1

How the values were obtained:
patients with RA = conditions: 15 RA patients, 0.25, 2.5 or 25 mg daily orally for 6 months
Text: This study was a Phase I Immune Tolerization study conducted to determine whether in RA interplay between HLA and dnaJ-derived peptides there is maintained and/or stimulation of T cells which participate in autoimmune inflammation. The trial (number “n” of patients who completed=13) was designed in order to adhere to the American College of Rheumatology (ACR) 20 criteria for evaluation of efficacy.
Data from Phase I: The data shown in FIGS. 11A-E and 12A-E stem from a Phase I trial in which a total of 13 human RA patients were treated with three different doses of dnaJP1 qd po for 6 months. In vitro T cell responses to dnaJP1 were monitored at monthly intervals by measuring T cell proliferation and cytokine production in patients treated with dnaJP1 or control molecules.
We designed a pilot clinical trial to obtain information regarding both safety and immunological efficacy of the treatment. Enrollment criteria for this study included active RA as defined by the American College of Rheumatology, a disease duration <5 years and in vitro responsiveness to dnaJP1, defined as T cell proliferation and/or production of proinflammatory cytokines. DnaJP1 was given orally for 6 months. […]

[1] = test system: PBMC from patients with RA; conditions: 31 RA patient samples
Method: In FIG. 13A, Stimulation Index (SI) (y-axis). […] The dots represent individual patients. Lines indicate median values.
In FIG. 13B samples of 20 patients with recent onset RA and samples of 12 patients with OA were tested for T cell proliferation to the proteins and to the individual peptides.

[2] = test system: PBMC of subjects with JIA; assay: immunological recognition (T cell proliferation and/or cytokine production) in subjects with JIA; format: cell-based, human
Text: The right Y-axis depicts the stimulation index SI, and the left Y-axis depicts the production of cytokines INF-γ and IL-10 in pg/ml.
Immunological recognition of an antigen can be defined as antigen-specific T cell proliferation and/or antigen-specific cytokine production after culture with the specific antigens. In addition, in a very high percentage of subjects (ranging from 60 to 100%), T cell recognition of these pan DR binding hsp60 peptides could be detected (FIG. 9). This percentage can be considered extremely high if one considers both the failures of previous studies to determine T cell epitopes in JIA and the heterogenic HLA background in subjects with JIA.
If one compares the identified peptides with peptides that previously have been identified through the rat model of arthritis, the superiority of the method used here becomes evident. In previous studies in the model of adjuvant arthritis, it has been shown that mycobacterial hsp60 peptide containing amino acids 256-270 could induce protection in Adjuvant Arthritis. Following this finding a lot of effort has been put in attempting to identify the presence of 256-270 specific T cells in subjects with JIA. Based on the data provided by the computer algorithm, a new peptide was designed that was compared to the 256-270 aa peptide. […]

[3] = test system: PBMC of subjects with JIA; format: cell-based, human; conditions: 72 hours culture, ELISA
[4] = test system: PBMCs from patients with RA; assay: T cell proliferation assay, PBMC of RA patients in the dnaJP1 trial; format: cell-based, human; conditions: negative control peptide
Text: FIG. 20A-L Treatment-induced modulation of T cell responses to dnaJP1. PBMC immune responses to dnaJP and controls from patients enrolled in the trial (n=15). T cell-proliferative response after in vitro culture with dnaJP1(a) or an irrelevant altered peptide ligand (b) in a standard proliferation assay. Phytohemagglutinin (a, ▴) was used as a positive control for T cell proliferation. […] Intracellular production of IL-2, IFN-γ, and TNF-α in response to dnaJP1 (c, e, and g) or PADRE peptide (d-f and h, respectively) at day 0 assessed at monthly intervals during treatment. Cytokine production is expressed as the percentage of CD3/cytokine double-positive cells measured by FACS in antigen-stimulated cultures, nonstimulated cultures (y axis). Error bars represent SD of the mean. Intracellular production of IL-4 (i) and IL-10 (k) after in vitro culture with dnaJP1 or with PADRE (j and l) at days 0, 56, and 168 of the treatment period.
T Cell Proliferation Assays. Peripheral blood mononuclear cells (PBMCs) were cultured in triplicate in […] u-shaped bottom wells (Costar, Cambridge, Mass.) at 5×10^5 cells per well for 120 h with or without antigen. […] Thymidine uptake was measured by using a liquid scintillation counter. Results are expressed as a mean cpm of triplicate cultures. The magnitude of the response is expressed as stimulation index: the mean cpm of stimulated/nonstimulated cultures. […]

[5] = test system: PBMC from patients with JDM; assay: T cell proliferation (thymidine incorporation), PBMC of Juvenile Dermatomyositis patients; format: cell-based, human; conditions: 10 micrograms/ml, 96 hours; active disease vs remission
Text: FIG. 17 is a graph showing T cell proliferative responses of PBMC from patients with Juvenile Dermatomyositis (JDM) towards the hsp60 bacterial and human peptides of FIG. 5. Patients in remission (n=7); patients with active JDM (n=6).
This example identifies in another pediatric disease a peptide from the pool whose recognition triggers regulatory type T cells. Thirteen patients with a definite diagnosis of JDM according to standard disease criteria, were included in this study. […] All antigens were cultured at 10 micrograms/ml. After 96 hours thymidine incorporation was measured. The results are expressed in FIG. 17 as stimulation index (SI). SI is defined as counts per minute (cpm) thymidine incorporation in cells cultured with an antigen divided by cpm of cells cultured in culture medium without antigen. […] Bars represents the mean SI for PBMC from JDM patients with either active disease or incomplete clinical remission.

Molecule | recognition (T cell proliferation) by RA patients [1] | further results
C[C@H](NC(=O)[C@H](C)NC(=O)[C@H](Cc1c[nH]cn1)NC(=O)CNC(=O)[C@H](Cc1ccc(O)cc1)NC(=O)[C@H](CCC(N)=O)NC(=O)[C@H](CC(=O)O)NC(=O)[C@H](Cc1ccc(O)cc1)NC(=O)[C@H](C)NC(=O)[C@H](C)NC(=O)[C@H](CCCNC(=N)N)NC(=O)[C@H](CCCCN)NC(=O)[C@H](CCC(N)=O)NC(=O)CCCC[C@@H]1SC[C@@H]2NC(=O)N[C@@H]21)C(=O)N[C@@H](Cc1ccccc1)C(=O)N[C@@H](CCC(=O)O)C(N)=O [dnaJP1] (Biotin-QKRAAYDQYGHAAFE-NH2) | – | tolerability / side effects (patients with RA): well tolerated because no significant side effects were reported
GEALSTLVVNKIRGT [P1] | recognized | T cell responses as defined by T cell proliferation and cytokine production [2]: did induce T cell responses
AYVLLSEKKISSIQS [P4] | recognized | –
KCEFQDAYVLLSEKK [P6] | recognized | –
mycobacterial hsp60 256-270: negative control peptide, mycobacterial hsp60 amino acids 256-270, protective in rat adjuvant arthritis | – | antigen-specific cytokine production (IL-10, IFN-γ, TNF-α) [3]: did not induce any cytokine production
GEALSTLVLNRLKVG [P2] | recognized | –
DERAAYDQYGHAAFE (Biotin-DERAAYDQYGHAAFE-NH2; SMILES C[C@H](NC(=O)[C@H](C)NC(=O)[C@H](Cc1c[nH]cn1)NC(=O)CNC(=O)[C@H](Cc1ccc(O)cc1)NC(=O)[C@H](CCC(N)=O)NC(=O)[C@H](CC(=O)O)NC(=O)[C@H](Cc1ccc(O)cc1)NC(=O)[C@H](C)NC(=O)[C@H](C)NC(=O)[C@H](CCCNC(=N)N)NC(=O)[C@H](CCC(=O)O)NC(=O)[C@H](CC(=O)O)NC(=O)CCCC[C@@H]1SC[C@@H]2NC(=O)N[C@@H]21)C(=O)N[C@@H](Cc1ccccc1)C(=O)N[C@@H](CCC(=O)O)C(N)=O) [dnaJPv, altered peptide ligand, identical to dnaJP1 except for the two N-terminal amino acids; negative control] | – | proliferative T cell response in patients with RA [4]: does not induce a proliferative T cell response; proliferative T cell response in patients with RA ([4]; listed as dnaJpV): not stimulatory in patients
PYILLVSSKVSTVKD [P3] | recognized | –
EAVLEDPYILLVSSK [P5] | recognized | –
VASLLTTAEVVVTEI (listed as Homo sapiens) [P8, residues 535-549 of human hsp60] | recognized | recognition (T cell proliferation, SI) in JDM patients [5]: recognized by the patients during disease remission
IAGLFLTTEAVVADK [P7] | recognized | –
